Data published in US12696901B2, “Pesticidally active heterocyclic derivatives with sulfur containing substituents” (SYNGENTA CROP PROTECTION AG, priority 2020, dated 2026).

Key:
Assay type in all cases: in vivo
[1] = system: Diabrotica balteata (Corn Root Worm); test: Activity against Diabrotica balteata (corn root worm), sprayed maize sprouts on agar; details: 96 h, application rate 200 ppm, L2 larvae, 4 days after infestation, read-out: effect in at least one of the two categories (mortality or growth inhibition)
Protocol: Example B2: Activity Against Diabrotica balteata (Corn Root Worm)
Maize sprouts placed onto an agar layer in 24-well microtiter plates were treated with aqueous test solutions prepared from 10,000 ppm DMSO stock solutions by spraying. After drying, the plates were infested with L2 larvae (6 to 10 per well). The samples were assessed for mortality and growth inhibition in comparison to untreated samples 4 days after infestation.

[2] = system: Euschistus heros (Neotropical Brown Stink Bug); test: Activity against Euschistus heros (neotropical brown stink bug), sprayed soybean leaves; details: 120 h, application rate 200 ppm, N2 nymphs, 5 days after infestation, read-out: effect in at least one of the two categories (mortality or growth inhibition)
Protocol: Example B3: Activity Against Euschistus heros (Neotropical Brown Stink Bug)
Soybean leaves on agar in 24-well microtiter plates were sprayed with aqueous test solutions prepared from 10,000 ppm DMSO stock solutions. After drying the leaves were infested with N2 nymphs. The samples were assessed for mortality and growth inhibition in comparison to untreated samples 5 days after infestation.

[3] = system: Plutella xylostella (Diamond Back Moth); test: Activity against Plutella xylostella (diamond back moth), treated artificial diet; details: 192 h, application rate 200 ppm, eggs, 8 days after infestation, read-out: effect in at least one of the two categories (mortality or growth inhibition)
Protocol: Example B5: Activity Against Plutella xylostella (Diamond Back Moth)
24-well microtiter plates with artificial diet were treated with aqueous test solutions prepared from 10,000 ppm DMSO stock solutions by pipetting. After drying, Plutella eggs were pipetted through a plastic stencil onto a gel blotting paper and the plate was closed with it. The samples were assessed for mortality and growth inhibition in comparison to untreated samples 8 days after infestation.

[4] = system: Spodoptera littoralis (Egyptian Cotton Leaf Worm); test: Activity against Spodoptera littoralis (Egyptian cotton leaf worm), sprayed cotton leaf discs; details: foliar, 72 h, application rate 200 ppm, L1 larvae, 3 days after infestation
Protocol: Example B7: Activity Against Spodoptera littoralis (Egyptian Cotton Leaf Worm)
Cotton leaf discs were placed onto agar in 24-well microtiter plates and sprayed with aqueous test solutions prepared from 10,000 ppm DMSO stock solutions. After drying the leaf discs were infested with five L1 larvae. The samples were assessed for mortality, anti-feeding effect, and growth inhibition in comparison to untreated samples 3 days after infestation. Control of Spodoptera littoralis by a test sample is given when at least one of the categories mortality, anti-feedant effect, and growth inhibition is higher than the untreated sample.

[5] = system: Myzus persicae (Green Peach Aphid); test: Activity against Myzus persicae (green peach aphid), feeding/contact activity; details: 144 h, application rate 200 ppm, mixed ages, 6 days after infestation
Protocol: Example B6: Activity Against Myzus persicae (Green Peach Aphid) Feeding/Contact Activity
Sunflower leaf discs were placed onto agar in a 24-well microtiter plate and sprayed with aqueous test solutions prepared from 10,000 ppm DMSO stock solutions. After drying, the leaf discs were infested with an aphid population of mixed ages. The samples were assessed for mortality 6 days after infestation.

[6] = system: Chilo suppressalis (Striped Rice Stemborer); test: Activity against Chilo suppressalis (striped rice stemborer), treated artificial diet; details: 144 h, application rate 200 ppm, L2 larvae, 6 days after infestation
Protocol: Example B10: Activity Against Chilo suppressalis (Striped Rice Stemborer)
24-well microtiter plates with artificial diet were treated with aqueous test solutions prepared from 10,000 ppm DMSO stock solutions by pipetting. After drying, the plates were infested with L2 larvae (6-8 per well). The samples were assessed for mortality, anti-feeding effect, and growth inhibition in comparison to untreated samples 6 days after infestation. Control of Chilo suppressalis by a test sample is given when at least one of the categories mortality, anti-feedant effect, and growth inhibition is higher than the untreated sample.

[7] = system: Carpocapsa (Cydia) Pomonella (Codling Moth); test: Activity against Carpocapsa (Cydia) pomonella (codling moth), sprayed diet cubes; details: 336 h, application rate 12.5 ppm, L1 larvae, 14 days after infestation, read-out: effect in at least one of the two categories (mortality or growth inhibition)
Protocol: Example B11: Activity Against Carpocapsa (Cydia) Pomonella (Codling Moth)
Diet cubes coated with paraffin were sprayed with diluted test solutions in an application chamber. After drying off the treated cubes (10 replicates) were infested with 1 L1 larvae. Samples were incubated at 26-27° C. and checked 14 days after infestation for mortality and growth inhibition. The following compounds gave an effect of at least 80% in at least one of the two categories (mortality or growth inhibition) at an application rate of 12.5 ppm: P1, P2, P3, P4, P5, P6, P10, P11, P12, P14, P15, P16, P17, P19, P20, P21, P22, P24, P27, P29, P30, P33, P34, P35.

[8] = system: Diabrotica balteata (Corn Root Worm); test: Activity against Diabrotica balteata (corn root worm), corn seedlings on filter paper in cups; details: 120 h, application rate 3 ppm, L2 larva, 5 days after treatment, read-out: effect in at least one of the two categories (mortality or growth inhibition)
Protocol: Example B12: Activity Against Diabrotica Balteata (Corn Root Worm)
Three corn seedlings were placed on wetted filter paper in plastic cups, and 3 ml of diluted test solutions were pipetted onto them. The cups were infested with 10 L2 larva and checked for mortality and growth regulation 5 days after treatment.

CCS(=O)(=O)c1c(N2Cc3ncc(C(F)(F)F)cc3C2=O)nc2ccc(OC)cn12 [Compound P8, 6-(3-ethylsulfonyl-6-methoxy-imidazo [1,2-a]pyridin-2-yl)-3-(trifluoromethyl)-7H-pyrrolo[3,4-b] pyridin-5-one]
≥ 80%: percent effect (mortality or growth inhibition) at 200 ppm [1] | percent effect (mortality or growth inhibition) at 200 ppm [2] | percent effect (mortality or growth inhibition) at 200 ppm [3] | percent control (mortality, anti-feedant effect or growth inhibition) at 200 ppm [4]

CCS(=O)(=O)c1c(N2Cc3ncc(C(F)(F)F)cc3C2=O)nc2ccc(OCC(F)(F)F)cn12 [Compound P11, 6-[3-ethylsulfonyl-6-(2,2,2-trifluoroethoxy)imidazo[1,2-a]pyridin-2-yl]-3-(trifluoromethyl)-7H-pyrrolo[3,4-b]pyridin-5-one]
≥ 80%: percent effect (mortality or growth inhibition) at 200 ppm [1] | percent effect (mortality or growth inhibition) at 200 ppm [3] | mortality at 200 ppm [5] | percent control (mortality, anti-feedant effect or growth inhibition) at 200 ppm [4] | percent control (mortality, anti-feedant effect or growth inhibition) at 200 ppm [6] | percent effect (mortality or growth inhibition) at 12.5 ppm [7] | percent effect (mortality or growth inhibition) at 3 ppm [8]

CCS(=O)(=O)c1c(N2Cc3ncc(C(F)(F)F)cc3C2=O)nc2cc(OCC(F)(F)F)ccn12 [Compound P12, 6-[3-ethylsulfonyl-7-(2,2,2-trifluoroethoxy)imidazo[1,2-a]pyridin-2-yl]-3-(trifluoromethyl)-7H-pyrrolo[3,4-b]pyridin-5-one]
≥ 80%: percent effect (mortality or growth inhibition) at 200 ppm [1] | percent effect (mortality or growth inhibition) at 200 ppm [2] | percent effect (mortality or growth inhibition) at 200 ppm [3] | mortality at 200 ppm [5] | percent control (mortality, anti-feedant effect or growth inhibition) at 200 ppm [4] | percent control (mortality, anti-feedant effect or growth inhibition) at 200 ppm [6] | percent effect (mortality or growth inhibition) at 12.5 ppm [7] | percent effect (mortality or growth inhibition) at 3 ppm [8]

CCS(=O)(=O)c1c(N2Cc3ncc(C(F)(F)F)cc3C2=O)nc2ccc(OCC(F)F)cn12 [Compound P19, 6-[6-(2,2-difluoroethoxy)-3-ethylsulfonyl-imidazo[1,2-a]pyridin-2-yl]-3-(trifluoromethyl)-7H-pyrrolo[3,4-b]pyridin-5-one]
≥ 80%: percent effect (mortality or growth inhibition) at 200 ppm [1] | percent effect (mortality or growth inhibition) at 200 ppm [2] | percent effect (mortality or growth inhibition) at 200 ppm [3] | mortality at 200 ppm [5] | percent control (mortality, anti-feedant effect or growth inhibition) at 200 ppm [4] | percent control (mortality, anti-feedant effect or growth inhibition) at 200 ppm [6] | percent effect (mortality or growth inhibition) at 12.5 ppm [7] | percent effect (mortality or growth inhibition) at 3 ppm [8]

CCS(=O)(=O)c1c(N2Cc3ncc(C(F)(F)F)cc3C2=O)nc2ccc(Br)cn12 [Compound P21, 6-(6-bromo-3-ethylsulfonyl-imidazo[1,2-a]pyridin-2-yl)-3-(trifluoromethyl)-7H-pyrrolo[3,4-b]pyridin-5-one]
≥ 80%: percent effect (mortality or growth inhibition) at 200 ppm [1] | percent effect (mortality or growth inhibition) at 200 ppm [2] | percent effect (mortality or growth inhibition) at 200 ppm [3] | mortality at 200 ppm [5] | percent control (mortality, anti-feedant effect or growth inhibition) at 200 ppm [4] | percent control (mortality, anti-feedant effect or growth inhibition) at 200 ppm [6] | percent effect (mortality or growth inhibition) at 12.5 ppm [7] | percent effect (mortality or growth inhibition) at 3 ppm [8]

CCS(=O)(=O)c1c(N2Cc3ncc(C(F)(F)F)cc3C2=O)nc2cc(Br)ccn12 [Compound P22, 6-(7-bromo-3-ethylsulfonyl-imidazo[1,2-a]pyridin-2-yl)-3-(trifluoromethyl)-7H-pyrrolo[3,4-b]pyridin-5-one]
≥ 80%: percent effect (mortality or growth inhibition) at 200 ppm [1] | percent effect (mortality or growth inhibition) at 200 ppm [3] | mortality at 200 ppm [5] | percent control (mortality, anti-feedant effect or growth inhibition) at 200 ppm [4] | percent control (mortality, anti-feedant effect or growth inhibition) at 200 ppm [6] | percent effect (mortality or growth inhibition) at 12.5 ppm [7] | percent effect (mortality or growth inhibition) at 3 ppm [8]

CCS(=O)(=O)c1c(N2Cc3ncc(C(F)(F)F)cc3C2=O)nc2cc(C3CC3)ccn12 [Compound P24, 6-(7-cyclopropyl-3-ethylsulfonyl-imidazo[1,2-a]pyridin-2-yl)-3-(trifluoromethyl)-7H-pyrrolo[3,4-b]pyridin-5-one]
≥ 80%: percent effect (mortality or growth inhibition) at 200 ppm [1] | percent effect (mortality or growth inhibition) at 200 ppm [2] | percent effect (mortality or growth inhibition) at 200 ppm [3] | mortality at 200 ppm [5] | percent control (mortality, anti-feedant effect or growth inhibition) at 200 ppm [4] | percent control (mortality, anti-feedant effect or growth inhibition) at 200 ppm [6] | percent effect (mortality or growth inhibition) at 12.5 ppm [7] | percent effect (mortality or growth inhibition) at 3 ppm [8]

CCS(=O)(=O)c1c(N2Cc3ccc(OC(F)(F)F)cc3C2=O)nc2ccc(Br)cn12 [Compound P29, 2-(6-bromo-3-ethylsulfonyl-imidazo [1,2-a]pyridin-2-yl)-6-(trifluoromethoxy) isoindolin-1-one]
≥ 80%: percent effect (mortality or growth inhibition) at 200 ppm [1] | percent effect (mortality or growth inhibition) at 200 ppm [3] | mortality at 200 ppm [5] | percent control (mortality, anti-feedant effect or growth inhibition) at 200 ppm [4] | percent control (mortality, anti-feedant effect or growth inhibition) at 200 ppm [6] | percent effect (mortality or growth inhibition) at 12.5 ppm [7] | percent effect (mortality or growth inhibition) at 3 ppm [8]

CCS(=O)(=O)c1c(N2Cc3ccc(OC(F)F)cc3C2=O)nc2ccc(C(F)(F)F)cn12 [Compound P34, 6-(difluoromethoxy)-2-[3-ethylsulfonyl-6-(trifluoromethyl)imidazo[1,2-a]pyridin-2-yl]isoindolin-1-one]
≥ 80%: percent effect (mortality or growth inhibition) at 200 ppm [1] | percent effect (mortality or growth inhibition) at 200 ppm [3] | mortality at 200 ppm [5] | percent control (mortality, anti-feedant effect or growth inhibition) at 200 ppm [4] | percent control (mortality, anti-feedant effect or growth inhibition) at 200 ppm [6] | percent effect (mortality or growth inhibition) at 12.5 ppm [7] | percent effect (mortality or growth inhibition) at 3 ppm [8]
